{"source": "patent US9527885B2", "about": "“Hepatitis C virus inhibitors” (BRISTOL-MYERS SQUIBB COMPANY, priority 2011, dated 2016)", "key": {"[1]": {"tested_on": "HCV genotype 1a (H77 strain) replicon in HUH-7 cells", "assay": "HCV replicon luciferase reporter assay, genotype 1a", "assay_type": "cell-based", "conditions": "Hepatitis C virus, Huh-7, 72 h, HCV genotype 1a replicon luciferase, 3 days incubation, read-out: LE_1a (EC50, range)", "summary_of_the_method": "(§1)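 Twenty-point, threefold compound titrations (0.5% DMSO) were incubated 3 days at 37 °C with 3.0×10^3 HUH-7 cells/well in 4% FCS. The cells stably carried luciferase replicons: genotype 1b Con1 (S1179I) or 1a H77 (NS3 P1496L, NS5A S2204I). Renilla signal was read after 2 h with 7.5 μM EnduRen, and EC50 was taken from a four-parameter logistic fit. Cytotoxicity (CC50) was measured by Cell Titer-Blue, 8 h.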"}, "[2]": {"tested_on": "HCV genotype 1b (Con1) replicon in HUH-7 cells", "assay": "HCV replicon luciferase reporter assay, genotype 1b", "assay_type": "cell-based", "conditions": "Hepatitis C virus, 72 h, HCV genotype 1b replicon luciferase, 3 days incubation, read-out: LE_1b (EC50, range)", "summary_of_the_method": "as §1"}}, "note": "Read-outs that look alike come from different tables or passages of the source.", "data": [{"smiles": "CCOc1ccc2c(O[C@@H]3C[C@H]4C(=O)N[C@]5(C(=O)NS(=O)(=O)C6(C)CC6)C[C@H]5/C=C\\CC[C@H](C)C[C@@H](C)[C@H](NC(=O)O[C@@H]5C[C@@H]6C[C@@H]6C5)C(=O)N4C3)nccc2c1", "note": "[Compound 5137, (1R,3r,5S)-bicyclo[3.1.0]hexan-3-yl ((2R,6S,7R,9S,13aS,14aR,16aS,Z)-2-((6-ethoxyisoquinolin-1-yl)oxy)-7,9-dimethyl-14a-(((1-methylcyclopropyl)sulfonyl)carbamoyl)-5,16-dioxo-1,2,3,5,6,7,8,9,10,11,13a,14,14a,15,16,16a-hexadecahydrocyclopropa[e]pyrrolo[1,2-a][1,4]diazacyclopentadecin-6-yl)carbamate]", "values": [{"measurement": "EC50", "setting": "[1]; class symbols", "result": "< 5.46", "unit": "nM"}, {"measurement": "EC50", "setting": "[2]; class symbols", "result": "< 5.46", "unit": "nM"}]}, {"smiles": "CCOc1ccc2c(O[C@@H]3C[C@H]4C(=O)N[C@]5(C(=O)NS(=O)(=O)C6(C)CC6)C[C@H]5/C=C\\CC[C@@H](C)C[C@@H](C)[C@H](NC(=O)O[C@@H]5C[C@@H]6C[C@@H]6C5)C(=O)N4C3)nccc2c1", "note": "[Compound 5138, (1R,3r,5S)-bicyclo[3.1.0]hexan-3-yl ((2R,6S,7R,9R,13 aS,14aR,16aS,Z)-2-((6-ethoxyisoquinolin-1-yl)oxy)-7,9-dimethyl-14a-(((1-methylcyclopropyl)sulfonyl)carbamoyl)-5,16-dioxo-1,2,3,5,6,7,8,9,10,11,13a,14,14a,15,16,16a-hexadecahydrocyclopropa[e]pyrrolo[1,2-a][1,4]diazacyclopentadecin-6-yl)carbamate]", "values": [{"measurement": "EC50", "setting": "[1]; class symbols", "result": "< 5.46", "unit": "nM"}, {"measurement": "EC50", "setting": "[2]; class symbols", "result": "< 5.46", "unit": "nM"}]}, {"smiles": "CCCOc1ccc2c(O[C@@H]3C[C@H]4C(=O)N[C@]5(C(=O)NS(=O)(=O)C6CC6)C[C@H]5/C=C\\CC[C@@H](C)C[C@@H](C)[C@H](NC(=O)OC(C(F)(F)F)(C(Cl)(Cl)Cl)C(Cl)(Cl)Cl)C(=O)N4C3)nccc2c1", "note": "[Compound 5173, 1,1,1,3,3,3-hexachloro-2-(trifluoromethyl)propan-2-yl ((2R,6S,7R,9R,13aS,14aR,16aS,Z)-14a-((cyclopropylsulfonyl)carbamoyl)-7,9-dimethyl-5,16-dioxo-2-((6-propoxyisoquinolin-1-yl)oxy)-1,2,3,5,6,7,8,9,10,11,13a,14,14a,15,16,16a-hexadecahydrocyclopropa[e]pyrrolo[1,2-a][1,4]diazacyclopentadecin-6-yl)carbamate]", "values": [{"measurement": "EC50", "setting": "[1]; range class", "result": "< 5.46", "unit": "nM"}, {"measurement": "EC50", "setting": "[2]; range class", "result": "< 5.46", "unit": "nM"}]}, {"smiles": "[2H]C([2H])([2H])C(OC(=O)N[C@@H]1C(=O)N2C[C@H](Oc3nccc4cc(OC)ccc34)C[C@H]2C(=O)N[C@]2(C(=O)NS(=O)(=O)C3(C)CC3)C[C@H]2/C=C\\CC[C@H](C)C[C@H]1C)(C([2H])([2H])[2H])C(F)(F)F", "note": "[Compound 5174, 1,1,1,3,3,3-hexadeutero-2-(trifluoromethyl)propan-2-yl ((2R,6S,7R,9S,13aS,14aR,16aS,Z)-2-((6-methoxyisoquinolin-1-yl)oxy)-7,9-dimethyl-14a-(((1-methylcyclopropyl)sulfonyl)carbamoyl)-5,16-dioxo-1,2,3,5,6,7,8,9,10,11,13a,14,14a,15,16,16a-hexadecahydrocyclopropa[e]pyrrolo[1,2-a][1,4]diazacyclopentadecin-6-yl)carbamate]", "values": [{"measurement": "EC50", "setting": "[1]; range class", "result": "< 5.46", "unit": "nM"}, {"measurement": "EC50", "setting": "[2]; range class", "result": "< 5.46", "unit": "nM"}]}, {"smiles": "[2H]C([2H])([2H])C(OC(=O)N[C@@H]1C(=O)N2C[C@H](Oc3nccc4cc(OC)ccc34)C[C@H]2C(=O)N[C@]2(C(=O)NS(=O)(=O)C3(C)CC3)C[C@H]2/C=C\\CC[C@@H](C)C[C@H]1C)(C([2H])([2H])[2H])C(F)(F)F", "note": "[Compound 5175, 1,1,1,3,3,3-hexadeutero-2-(trifluoromethyl)propan-2-yl ((2R,6S,7R,9R,13aS,14aR,16aS,Z)-2-((6-methoxyisoquinolin-1-yl)oxy)-7,9-dimethyl-14a-(((1-methylcyclopropyl)sulfonyl)carbamoyl)-5,16-dioxo-1,2,3,5,6,7,8,9,10,11,13a,14,14a,15,16,16a-hexadecahydrocyclopropa[e]pyrrolo[1,2-a][1,4]diazacyclopentadecin-6-yl)carbamate]", "values": [{"measurement": "EC50", "setting": "[1]; range class", "result": "< 5.46", "unit": "nM"}, {"measurement": "EC50", "setting": "[2]; range class", "result": "< 5.46", "unit": "nM"}]}, {"smiles": "[2H]C([2H])([2H])C(C)(OC(=O)N[C@@H]1C(=O)N2C[C@H](Oc3nccc4cc(OC)ccc34)C[C@H]2C(=O)N[C@]2(C(=O)NS(=O)(=O)C3(C)CC3)C[C@H]2/C=C\\CC[C@H](C)C[C@H]1C)C([2H])([2H])[2H]", "note": "[Compound 5176, 1,1,1,3,3,3-hexadeutero-2-methylpropan-2-yl ((2R,6S,7R,9S,13aS,14aR,16aS,Z)-2-((6-methoxyisoquinolin-1-yl)oxy)-7,9-dimethyl-14a-(((1-methylcyclopropyl)sulfonyl)carbamoyl)-5,16-dioxo-1,2,3,5,6,7,8,9,10,11,13a,14,14a,15,16,16a-hexadecahydrocyclopropa[e]pyrrolo[1,2-a][1,4]diazacyclopentadecin-6-yl)carbamate]", "values": [{"measurement": "EC50", "setting": "[1]; range class", "result": "4.82 to 103", "unit": "nM"}, {"measurement": "EC50", "setting": "[2]; range class", "result": "< 5.46", "unit": "nM"}]}, {"smiles": "[2H]C([2H])([2H])C(C)(OC(=O)N[C@@H]1C(=O)N2C[C@H](Oc3nccc4cc(OC)ccc34)C[C@H]2C(=O)N[C@]2(C(=O)NS(=O)(=O)C3(C)CC3)C[C@H]2/C=C\\CC[C@@H](C)C[C@H]1C)C([2H])([2H])[2H]", "note": "[Compound 5177, 1,1,1,3,3,3-hexadeutero-2-methylpropan-2-yl ((2R,6S,7R,9R,13aS,14aR,16aS,Z)-2-((6-methoxyisoquinolin-1-yl)oxy)-7,9-dimethyl-14a-(((1-methylcyclopropyl)sulfonyl)carbamoyl)-5,16-dioxo-1,2,3,5,6,7,8,9,10,11,13a,14,14a,15,16,16a-hexadecahydrocyclopropa[e]pyrrolo[1,2-a][1,4]diazacyclopentadecin-6-yl)carbamate]", "values": [{"measurement": "EC50", "setting": "[1]; range class", "result": "< 5.46", "unit": "nM"}, {"measurement": "EC50", "setting": "[2]; range class", "result": "< 5.46", "unit": "nM"}]}, {"smiles": "C[C@@H]1CC/C=C\\[C@@H]2C[C@@]2(C(=O)NS(=O)(=O)C2CC2)NC(=O)[C@@H]2C[C@@H](Oc3nc4ccccc4c4ccccc34)CN2C(=O)[C@@H](NC(=O)OC(C)(C)C(F)(F)F)[C@H](C)C1", "note": "[Compound 5185, 1,1,1-trifluoro-2-methylpropan-2-yl ((2R,6S,7R,9R,13aS,14aR,16aS,Z)-14a-((cyclopropylsulfonyl)carbamoyl)-7,9-dimethyl-5,16-dioxo-2-(phenanthridin-6-yloxy)-1,2,3,5,6,7,8,9,10,11,13a,14,14a,15,16,16a-hexadecahydrocyclopropa[e]pyrrolo[1,2-a][1,4]diazacyclopentadecin-6-yl)carbamate]", "values": [{"measurement": "EC50", "setting": "[1]; range class", "result": "< 5.46", "unit": "nM"}, {"measurement": "EC50", "setting": "[2]; range class", "result": "< 5.46", "unit": "nM"}]}, {"smiles": "COc1ccc2c(O[C@@H]3C[C@H]4C(=O)N[C@]5(C(=O)NS(=O)(=O)C6CC6)C[C@H]5/C=C\\CC[C@H](C)C[C@@H](C)[C@H](NC(=O)O[C@@H]5C[C@@H]6C[C@@H]6C5)C(=O)N4C3)nc(-c3ccc(N4CCOCC4)cc3)cc2c1", "note": "[Compound 5194, (1R,3r,5S)-bicyclo[3.1.0]hexan-3-yl ((2R,6S,7R,9S,13aS,14aR,16aS,Z)-14a-((cyclopropylsulfonyl)carbamoyl)-2-((6-methoxy-3-(4-morpholinophenyl)isoquinolin-1-yl)oxy)-7,9-dimethyl-5,16-dioxo-1,2,3,5,6,7,8,9,10,11,13a,14,14a,15,16,16a-hexadecahydrocyclopropa[e]pyrrolo[1,2-a][1,4]diazacyclopentadecin-6-yl)carbamate]", "values": [{"measurement": "EC50", "setting": "[1]; range class", "result": "< 5.46", "unit": "nM"}, {"measurement": "EC50", "setting": "[2]; range class", "result": "< 5.46", "unit": "nM"}]}, {"smiles": "COc1ccc2c(O[C@@H]3C[C@H]4C(=O)N[C@]5(C(=O)NS(=O)(=O)C6CC6)C[C@H]5/C=C\\CC[C@@H](C)C[C@@H](C)[C@H](NC(=O)O[C@@H]5C[C@@H]6C[C@@H]6C5)C(=O)N4C3)nc(-c3ccc(N4CCOCC4)cc3)cc2c1", "note": "[Compound 5195, (1R,3r,5S)-bicyclo[3.1.0]hexan-3-yl ((2R,6S,7R,9R,13aS,14aR,16aS,Z)-14a-((cyclopropylsulfonyl)carbamoyl)-2-((6-methoxy-3-(4-morpholinophenyl)isoquinolin-1-yl)oxy)-7,9-dimethyl-5,16-dioxo-1,2,3,5,6,7,8,9,10,11,13a,14,14a,15,16,16a-hexadecahydrocyclopropa[e]pyrrolo[1,2-a][1,4]diazacyclopentadecin-6-yl)carbamate]", "values": [{"measurement": "EC50", "setting": "[1]; range class", "result": "< 5.46", "unit": "nM"}, {"measurement": "EC50", "setting": "[2]; range class", "result": "< 5.46", "unit": "nM"}]}, {"smiles": "COc1ccc2c(O[C@@H]3C[C@H]4C(=O)N[C@]5(C(=O)NS(=O)(=O)C6CC6)C[C@H]5/C=C\\CC[C@H](C)C[C@@H](C)[C@H](NC(=O)O[C@@H]5C[C@@H]6C[C@@H]6C5)C(=O)N4C3)nc(-c3ccc(OC(C)C)cn3)cc2c1", "note": "[Compound 5208, (1R,3r,5S)-bicyclo[3.1.0]hexan-3-yl ((2R,6S,7R,9S,13aS,14aR,16aS,Z)-14a-((cyclopropylsulfonyl)carbamoyl)-2-((3-(5-isopropoxypyridin-2-yl)-6-methoxyisoquinolin-1-yl)oxy)-7,9-dimethyl-5,16-dioxo-1,2,3,5,6,7,8,9,10,11,13a,14,14a,15,16,16a-hexadecahydrocyclopropa[e]pyrrolo[1,2-a][1,4]diazacyclopentadecin-6-yl)carbamate]", "values": [{"measurement": "EC50", "setting": "[1]; range class", "result": "< 5.46", "unit": "nM"}, {"measurement": "EC50", "setting": "[2]; range class", "result": "< 5.46", "unit": "nM"}]}, {"smiles": "COc1ccc2c(O[C@@H]3C[C@H]4C(=O)N[C@]5(C(=O)NS(=O)(=O)C6CC6)C[C@H]5/C=C\\CC[C@@H](C)C[C@@H](C)[C@H](NC(=O)O[C@@H]5C[C@@H]6C[C@@H]6C5)C(=O)N4C3)nc(-c3ccc(OC(C)C)cn3)cc2c1", "note": "[Compound 5209, (1R,3r,5S)-bicyclo[3.1.0]hexan-3-yl ((2R,6S,7R,9R,13aS,14aR,16aS,Z)-14a-((cyclopropylsulfonyl)carbamoyl)-2-((3-(5-isopropoxypyridin-2-yl)-6-methoxyisoquinolin-1-yl)oxy)-7,9-dimethyl-5,16-dioxo-1,2,3,5,6,7,8,9,10,11,13a,14,14a,15,16,16a-hexadecahydrocyclopropa[e]pyrrolo[1,2-a][1,4]diazacyclopentadecin-6-yl)carbamate]", "values": [{"measurement": "EC50", "setting": "[1]; range class", "result": "< 5.46", "unit": "nM"}, {"measurement": "EC50", "setting": "[2]; range class", "result": "< 5.46", "unit": "nM"}]}]}
